According to patent US10227332B2, “T-type calcium channel modulator and uses thereof” (UTI Limited Partnership, priority 2014, dated 2019):

What was measured:
rCB1 = rCB1 (Rattus norvegicus (Rat), UniProt P20272); assay: Radioligand competitive binding assay, CB1 receptor (NIMH PDSP); conditions: means of three experiments run in triplicate
From the text: (§1) The compounds was screened using whole-cell voltage clamp techniques for their ability to mediate tonic block of transiently expressed hCav3.2 channels (FIG. 1). Next, radioligand binding assays were used to assess the affinities of these compounds for both CB1 and CB2 receptors (Table 1).
(§2) CB1 and CB2 radioligand binding data were obtained using National Institute of Mental Health (NIMH) Psychoactive Drug Screening Program (PDSP) resources as described earlier.

hCB2 = hCB2 (Homo sapiens (Human), UniProt P34972); assay: Radioligand competitive binding assay, CB2 receptor (NIMH PDSP); conditions: means of three experiments run in triplicate
From the text: as §1, §2

[1] = tested on: wild-type mice, formalin-induced pain; assay: Formalin test (acute nociceptive and inflammatory phases); format: in vivo, mouse; conditions: for inhibition of pain response time, first phase: formalin first phase; for inhibition of pain response time, second phase: formalin second phase
From the text: (§3) During experiments, all efforts were made to minimize animal suffering according to the policies and recommendations of the International Association for the Study of Pain and all protocols used were approved by the Institutional Animal Care and Use Committee. For all experiments, either adult male C57BL/6J (wild-type) or CACNA1H knockout (Cav3.2 null) mice (20-25 g) purchased from Jackson Laboratories were used. There were a maximum of five mice per cage (30×20×15 cm) and access to food and water was unlimited. Temperature was kept at 23±1° C. on a 12 h light/dark cycle (lights on at 7:00 a.m.). Intraperitoneal (i.p.) injections of drugs were a constant volume of 10 ml/kg body weight. Intrathecal (i.t.) injections used volumes of 10 μl and were performed using the method described previously and carried out routinely in our laboratory. All drugs were dissolved in 1% or less DMSO, whereas control animals received PBS+1% DMSO. For each test, a different group of mice were used and only one experiment per mouse was performed.
Before experiments were performed, mice were left to acclimatize for at least 60 minutes. Animals were then injected intraplantarily (i.pl.) in the ventral surface of the right hindpaw with 20 μl of a formalin solution (1.25%) made up in PBS. Following i.pl. injections of formalin, individual animals were placed immediately into observation chambers and monitored from 0-5 min (acute nociceptive phase) and 15-30 min (inflammatory phase).

wild type mice = assay: Open-field test (locomotor activity); format: in vivo, mouse; conditions: 30 mg/kg, i.p.
From the text: as §3
Briefly, the apparatus consisted of a wooden box measuring 40×60×50 cm with a glass front wall. The floor was divided into 12 equal squares and the entire apparatus was placed in a sound free room. Animals were placed in the rear left square and left to explore freely and the number of squares crossed with all paws (crossing) in a 6 minute timeframe was counted. […]

[2] = tested on: mice with partial sciatic nerve injury; assay: Partial sciatic nerve injury (PNI)-induced neuropathic pain, mechanical hyperalgesia; format: in vivo, mouse; conditions: 30 mg/kg, i.p.; after treatment
From the text: as §3
Before surgery, mice were anaesthetised with isoflurane (5% induction, 2.5% maintenance). […] Mechanical hyperalgesia was then evaluated in a time-dependant manner.
Mechanical hyperalgesia responses were recorded immediately before the surgeries (baselines), 14 days after the surgeries (0) and at various time points (0.5, 1, 2, 3 h) after treatment. […]

[3] = 1-10 μg/i.t., 20 minutes before
[4] = 10-100 mg/kg, i.p., 30 minutes prior

SMILES | rCB1 Ki (rCB1) | hCB2 Ki (hCB2) | inhibition of pain response time, first phase [1, 3] [%] | inhibition of pain response time, second phase [1, 3] [%] | inhibition of pain response time, first phase [1, 4] [%] | inhibition of pain response time, second phase [1, 4] [%] | locomotor activity in open-field test (wild type mice) | locomotor activity in open-field test (wild type mice; listed as compound 9) | duration of attenuation of mechanical hyperalgesia [2] [h]
CCCCCn1c2ccccc2c2cc(C(=O)NCC3CCNCC3)ccc21 [Compound 7, 9-Pentyl-N-(piperidin-4-ylmethyl)-9H-carbazole-3-carboxamide] | n.b. | n.b. | – | – | – | – | – | – | –
CCCCCn1c2ccccc2c2cc(C(=O)NCC3CCN(CC(=O)NC(C)(C)C)CC3)ccc21 [Compound 9, N-((1-(2-(tert-butylamino)-2-oxoethyl)piperidin-4-yl)methyl)-9-pentyl-9H-carbazole-3-carboxamide] | – | – | 61±8 | 76±10 | 47±2 | 66±48 | no significant motor deficits | did not significantly affect locomotor activity | > 3
